From PMC11304236, “A Novel Drug Candidate for Sepsis Targeting Heparanase by Inhibiting Cytokine Storm” (Advanced Science, 2024)

How the values were obtained:
LPS-induced septic mice = assay: LPS-induced sepsis mouse model, survival; assay type: in vivo; details: 40 mg kg−1 s.c. 30 min after LPS 40 mg kg−1 i.p.; 80 h or longer observation; LPS group 0%
Procedure: For LPS‐induced sepsis model experiments, 25 male C57BL/6J mice, 6–8 weeks old, weighing 20–25 g, were randomly divided into five groups (n = 5 in each group), and survival was examined. The abdominal cavity was injected with 40 mg kg^−1 LPS to induce sepsis. 30 min later, mice in group 1 were injected subcutaneously with 0.9% NaCl, mice in groups 2–4 were injected subcutaneously with CV122 (20 mg kg^−1), CV122 (30 mg kg^−1), and CV122 (40 mg kg^−1), respectively, and mice in group 5 were injected subcutaneously with Suramin (40 mg kg^−1). The status of the mice was observed and recorded every day.

TNF-α, IL-6, IL-1β = assay: Cytokine ELISA in serum and organs of LPS-induced septic mice; assay type: in vivo, mouse; details: 40 mg kg−1, 30 min after LPS 20 mg kg−1 i.p.; 3 h after LPS; vs LPS group
Procedure: For LPS‐induced sepsis model experiments, twenty male C57BL/6J mice were randomly divided into four groups (n = 5 in each group). Mice in group 1 were injected with 0.9% NaCl, while mice in groups 2–4 were injected intraperitoneally with LPS (20 mg kg^−1). After 30 min, mice in group 3 were injected with 40 mg kg^−1 CV122 and mice in group 4 were injected with 40 mg kg^−1 Suramin. After 3 h, blood was taken and the lungs, liver, spleen, kidney heart, and brain were taken. For CLP experiments, the mice were euthanized 24 h after the establishment of the sepsis model. Blood samples were collected from the eyeballs of mice, the lungs were taken. These organs were ground at 0.1 g mL^−1 in PBS, centrifuged and the supernatant collected. Serum and organ tissue supernatants were used to detect cytokine levels using the mouse TNF‐α, IL‐6, IL‐1β ELISA MAXTM Deluxe Set.

HUVECs = assay: Cell survival assay (CCK-8) in HUVECs; assay type: cell-based, human

SMILES: Cc1ccc(C(=O)Nc2ccc(S(=O)(=O)O)c3cc(S(=O)(=O)O)cc(S(=O)(=O)O)c23)cc1NC(=O)c1cccc(NC(=O)Nc2cccc(C(=O)Nc3cc(C(=O)Nc4ccc(S(=O)(=O)O)c5cc(S(=O)(=O)O)cc(S(=O)(=O)O)c45)ccc3C)c2)c1 [Suramin, reference compound]
- survival rate (LPS-induced septic mice): 60%
- TNF-α, IL-6 and IL-1β levels in serum and lungs (TNF-α, IL-6, IL-1β): suppress the cytokine release but to a lesser extent
- effect on survival of HUVECs (HUVECs; 100 µM, *p < 0.05): significant inhibitory effect
- effect on survival of HUVECs (HUVECs; 200 µM, **p < 0.01): significant inhibitory effect
